Type in all cases: in vivo
Experiment [1] has as its system Avena fatua (AVEFA). The experiment can be described thus: Post-emergence herbicidal activity, glasshouse pot test. The following applies: evaluated after 14 or 15 days; for pest or weed control at 500 g/ha / pest or weed control at 125 g/ha: Avena fatua, read-out: Post-emergence activity, AVEFA (100=total damage to plant; 0=no damage to plant); for pest or weed control at 125 g/ha: rate 125 g/ha. The essentials:
(§1)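 Post-emergence: plants sown in sterilised standard soil, grown 10 days in glasshouse, then sprayed with aqueous solution of active ingredient formulated in acetone with Emulsogen EL, N-methylpyrrolidone, dipropylene glycol monomethyl ether and X-77. Evaluated 14 or 15 days later; scored 0 (no damage) to 100 (total damage).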

The subject of experiment [2] is Alopecurus myosuroides (ALOMY). The experiment is described as above. Particulars: Alopecurus myosuroides, evaluated after 14 or 15 days, read-out: Post-emergence activity, ALOMY (100=total damage to plant; 0=no damage to plant); for pest or weed control at 500 g/ha: rate 500 g/ha; for pest or weed control at 125 g/ha: rate 125 g/ha. The essentials:
as §1

Experiment [3] has as its system Lolium perenne (LOLPE). Described as above. Particulars: Lolium perenne, evaluated after 14 or 15 days, read-out: Post-emergence activity, LOLPE (100=total damage to plant; 0=no damage to plant); for pest or weed control at 500 g/ha: rate 500 g/ha; for pest or weed control at 125 g/ha: rate 125 g/ha. A digest of the protocol: as §1
For experiment [4], the system named is Digitaria sanguinalis (DIGSA). The experiment is described as above. Particulars: Digitaria sanguinalis, evaluated after 14 or 15 days, read-out: Post-emergence activity, DIGSA (100=total damage to plant; 0=no damage to plant); for pest or weed control at 500 g/ha: rate 500 g/ha; for pest or weed control at 125 g/ha: rate 125 g/ha. The essentials:
as §1

In experiment [5] the test system is Setaria faberi (SETFA). Described as above. The following applies: Setaria faberi, evaluated after 14 or 15 days, read-out: Post-emergence activity, SETFA (100=total damage to plant; 0=no damage to plant); for pest or weed control at 500 g/ha: rate 500 g/ha; for pest or weed control at 125 g/ha: rate 125 g/ha. A digest of the protocol: as §1
In experiment [6] the test system is Echinochloa crus-galli (ECHCG). The description is as above. Particulars: Echinochloa crus-galli, evaluated after 14 or 15 days, read-out: Post-emergence activity, ECHCG (100=total damage to plant; 0=no damage to plant); for pest or weed control at 500 g/ha: rate 500 g/ha; for pest or weed control at 125 g/ha: rate 125 g/ha. The essentials: as §1
The test system of experiment [7] is Avena fatua (AVEFA). The experiment can be described thus: Pre-emergence herbicidal activity, glasshouse pot test. The following applies: Avena fatua, 480 h, rate 500 g/ha, evaluated after 20 days, read-out: Pre-emergence activity, AVEFA (100=total damage to plant; 0=no damage to plant). A digest of the protocol:
(§2)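 Damage was rated visually 20 days after treatment, from 0 (none) to 100 (plant killed). Treatment was a pre-emergence spray of aqueous formulated compound applied to pots sown one day earlier in sterilised soil, with plants then kept under optimum greenhouse conditions.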

For experiment [8], the system named is Alopecurus myosuroides (ALOMY). Described as above. Particulars: Alopecurus myosuroides, 480 h, rate 500 g/ha, evaluated after 20 days, read-out: Pre-emergence activity, ALOMY (100=total damage to plant; 0=no damage to plant). The essentials:
as §2

Experiment [9] concerns Lolium perenne (LOLPE). The description is as above. The following applies: Lolium perenne, 480 h, rate 500 g/ha, evaluated after 20 days, read-out: Pre-emergence activity, LOLPE (100=total damage to plant; 0=no damage to plant). The essentials:
as §2

The test system of experiment [10] is Digitaria sanguinalis (DIGSA). The experiment is described as above. Particulars: Digitaria sanguinalis, 480 h, rate 500 g/ha, evaluated after 20 days, read-out: Pre-emergence activity, DIGSA (100=total damage to plant; 0=no damage to plant). The essentials:
as §2

The subject of experiment [11] is Setaria faberi (SETFA). Described as above. The following applies: Setaria faberi, 480 h, rate 500 g/ha, evaluated after 20 days, read-out: Pre-emergence activity, SETFA (100=total damage to plant; 0=no damage to plant). A digest of the protocol:
as §2

In experiment [12] the test system is Echinochloa crus-galli (ECHCG). Described as above. The following applies: Echinochloa crus-galli, 480 h, rate 500 g/ha, evaluated after 20 days, read-out: Pre-emergence activity, ECHCG (100=total damage to plant; 0=no damage to plant). A digest of the protocol: as §2

Regarding `CCSC(C)CC1CC(=O)C(c2c(CC)cc(C)cc2CC)=C(O)C1` (stereo not drawn) [Compound T7, 2-(2,6-diethyl-4-methylphenyl)-5-[2-(ethylthio)propyl]cyclohexane-1,3-dione], the pest or weed control at 500 g/ha in experiment [1] (rate 500 g/ha) is 90%; in [2] it was 100%; in [3], 100%; in [4], 90%; in [5] it was 100%; in experiment [6], 90%. In addition, the pest or weed control at 500 g/ha in [7], in experiment [8], in [9], in experiment [10], in [11] and in experiment [12] was 100% in each case.

Turning to `CCc1cc(C)cc(CC)c1C1=C(OC(=O)COC)CC2(CCOCC2)CC1=O` [Compound P8], the pest or weed control at 125 g/ha in experiment [1] worked out at 100%; in experiment [2], 90%; in experiment [3], 90%; in experiment [4], 100%; in [5], 90%; in experiment [6], 100%. The pest or weed control at 500 g/ha worked out at 90% in experiment [7]; 100% in [8]; 100% in experiment [9]; 100% in experiment [10]; 100% in [11]; 100% in experiment [12].

With `Cc1cc(C)c(C2=C(O)CC3(CCS(=O)(=O)CC3)CC2=O)c(C)c1` [Compound T5], the pest or weed control at 500 g/ha was 20% in experiment [1] (rate 500 g/ha); 70% in experiment [2]; 70% in experiment [3]; 70% in experiment [4]; 70% in experiment [5]; 60% in [6]. Also, the pest or weed control at 500 g/ha was found to be 10% in experiment [7]; 70% in experiment [8]; 60% in experiment [9]; 70% in experiment [10]; 30% in [11]; 40% in [12].

As to `CCc1cc(C)cc(CC)c1C1=C(OC(=O)CC2CCCC2)CC2(CCOCC2)CC1=O` [Compound P11], the pest or weed control at 125 g/ha amounted to 100% in [1]; 90% in experiment [2]; 90% in experiment [3]; 70% in experiment [4]; 70% in experiment [5]; 70% in [6]. Moreover, the pest or weed control at 500 g/ha in [7] is 90%; in [8] it was 100%; in experiment [9], 90%; in [10], 100%; in experiment [11] it was 100%; in experiment [12], 90%.

Take `CCC[S+]([O-])C(C)CC1CC(=O)C(c2c(CC)cc(C)cc2CC)=C(O)C1` (stereo not drawn) [Compound T37]: the pest or weed control at 500 g/ha was determined as 90% in experiment [1] (rate 500 g/ha); 90% in experiment [2]; 90% in experiment [3]; 80% in experiment [4]; 50% in experiment [5]; 100% in [6]. In addition, the pest or weed control at 500 g/ha in [7] was determined as 90%; in [8], 100%; in experiment [9], 100%; in experiment [10] it was 100%; in experiment [11], 100%; in [12], 100%.

Regarding `CCc1cc(C)cc(C)c1C1=C(O)CC2(CCOCC2)CC1=O` [Compound T27], the pest or weed control at 500 g/ha was 90% in experiment [1] (rate 500 g/ha); 80% in [2]; 80% in [3]; 90% in [4]; 100% in experiment [5]; 100% in experiment [6]. Further, the pest or weed control at 500 g/ha in experiment [7], in experiment [8], in experiment [9], in experiment [10], in [11] and in [12] was 100% in each case.

In the case of `CCc1cc(C)cc(CC)c1C1=C(O)CC(CCS(C)(=O)=O)CC1=O` (stereo not drawn) [Compound T14], the “Post-emergence activity, AVEFA (100=total damage to plant; 0=no damage to plant)” value in [1] (rate 500 g/ha) is 90. Also, the pest or weed control at 500 g/ha was found to be 90% in experiment [2]; 90% in experiment [3]; 100% in experiment [4]; 100% in experiment [5]; 100% in experiment [6]; 100% in experiment [7]. For the same molecule, the pest or weed control at 500 g/ha came to 90% in experiment [8]; 100% in experiment [9]; 100% in experiment [10]; 100% in experiment [11]; 100% in [12].

With `C#CCOC(=O)OC1=C(c2c(CC)cc(C)cc2CC)C(=O)CC2(CCOCC2)C1` [Compound P22], the pest or weed control at 125 g/ha is 100% in experiment [1]; 90% in [2]; 90% in experiment [3]; 100% in experiment [4]; 90% in experiment [5]; 90% in experiment [6]. The pest or weed control at 500 g/ha in experiment [7], in [8], in experiment [9], in experiment [10], in experiment [11] and in experiment [12] was 100% in each case.

Consider `CCCS(=O)(=O)OC1=C(c2c(CC)cc(C)cc2CC)C(=O)CC2(CCOCC2)C1` [Compound P29], for which the pest or weed control at 125 g/ha in [1] was 0%; in [2], 30%; in experiment [3] it was 10%; in experiment [4], 50%; in experiment [5], 30%; in experiment [6] it was 30%. Also, the pest or weed control at 500 g/ha worked out at 60% in experiment [7]; 60% in experiment [8]; 60% in experiment [9]; 80% in experiment [10]; 60% in experiment [11]; 10% in experiment [12].

Source of the values: patent US8084649B2, “Herbicides” (Syngenta Crop Protection, inc., priority 2007, dated 2011).
